Experimental data: paper PMC9775191, “A Subset Screen of the Compounds Australia Scaffold Library Identifies 7-Acylaminodibenzoxazepinones as Potent and Selective Hits for Anti-Giardia Drug Discovery” (Biomedicines, 2022)

Test system: G. duodenalis BRIS/91/HEPU/1279
Assay: Primary Giardia screen at 10 µM (live-cell imaging, automated counting)
Assay type: cell-based, Giardia duodenalis
Settings: 24 h
In short: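 Percent growth versus 0.2% DMSO vehicle, background-corrected with media-only wells, is reported at 24 and 48 h from automated live-cell counts. Testing used 10 μM final in a 3% O2 atmosphere, with plate quality checked by Z' factor.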

SMILES	Average % Inhibition 24h [%]
CCCNC(=O)N1CCN(c2nc3ccccc3n3cccc23)CC1 [SN00793136]	3.9
COc1ccc(Nc2cc(C)nc(N3CCN(C(=O)c4ccccc4)CC3)n2)cc1 [SN00793485]	5.5

Same assay, conditions: 24 h, first singlicate assay

SMILES	% Inhibition n=1 24h [%]
CCCNC(=O)N1CCN(c2nc3ccccc3n3cccc23)CC1 [SN00793136]	7.8
COc1ccc(Nc2cc(C)nc(N3CCN(C(=O)c4ccccc4)CC3)n2)cc1 [SN00793485]	11.1

Same assay, conditions: 24 h, re-assessment

SMILES	% Inhibition n=2 24h [%]
CCCNC(=O)N1CCN(c2nc3ccccc3n3cccc23)CC1 [SN00793136]	0.0
COc1ccc(Nc2cc(C)nc(N3CCN(C(=O)c4ccccc4)CC3)n2)cc1 [SN00793485]	0.0

Same assay, conditions: 48 h

SMILES	Average % Inhibition 48h [%]
CCCNC(=O)N1CCN(c2nc3ccccc3n3cccc23)CC1 [SN00793136]	22.4
COc1ccc(Nc2cc(C)nc(N3CCN(C(=O)c4ccccc4)CC3)n2)cc1 [SN00793485]	29.3

Same assay, conditions: 48 h, first singlicate assay

SMILES	% Inhibition n=1 48h [%]
Cc1ccc(NC(=O)Cn2c(C)cc(C)c(-c3nc(-c4ccc5c(c4)OCO5)no3)c2=O)cc1 [SN00792912]	3.6
COc1ccccc1-c1cc(C(=O)Nc2sc(Nc3ccccc3)nc2C(N)=O)[nH]n1 [SN00792956]	11.1
CCn1c(=O)c(=O)n(CC(=O)NCc2ccc(SC)cc2)c2ccccc21 [SN00792977]	16.0
O=C(Cn1c(=O)c(=O)n(Cc2ccccc2)c2ccccc21)NCCCN1CCCC1 [SN00792985]	20.3
COc1ccc(NC(=O)N2CCC3(CC2)Nc2cc(C)ccc2-n2cccc23)cc1 [SN00793004]	10.6
CCc1ccc(C2=Nc3ncnn3/C2=N/Cc2ccc(F)cc2)cc1 [SN00793051]	1.3
CC(C)c1ccc(-c2noc(N3CCC(C(=O)N4CCN(C5CCCCC5)CC4)CC3)n2)cc1 [SN00793072]	11.6
CCCNC(=O)N1CCN(c2nc3ccccc3n3cccc23)CC1 [SN00793136]	44.8
Cc1c(C(=O)O)sc2ncnc(NC3CCCCCC3)c12 [SN00793181]	3.6
Cc1sc2ncn(CC3CCCO3)c(=O)c2c1C(=O)Nc1ccc(S(N)(=O)=O)nc1 (stereo not shown) [SN00793191]	0.0
COc1ccc(-c2cc3c(=O)n(Cc4cccc(F)c4)ccn3n2)cc1 [SN00793208]	0.0
COc1cccc(Cn2c(CNC(=O)CCc3c(C)noc3C)nc3cccnc32)c1 [SN00793247]	17.5
CC(C)CC(=O)NCc1nc2cccnc2n1Cc1ccc(F)cc1 [SN00793251]	8.4
Cc1cccc(Cn2c(CNS(=O)(=O)c3ccccc3)nc3cccnc32)c1 [SN00793267]	9.9
Cc1nc(-c2ccc(C(=O)N3CCCC3C(=O)Nc3ccc(C(C)C)cc3)cc2)no1 (stereo not shown) [SN00793315]	0.0
Cc1nc(-c2ccc(C(=O)N3CCCC3C(=O)Nc3ccc(C)c(Cl)c3)cc2)no1 (stereo not shown) [SN00793320]	16.2
CC(=O)N1CCCc2cc(S(=O)(=O)N3CCN(c4ccc(F)cc4)CC3)ccc21 [SN00793330]	0.2
O=C(C1CCC1)N1CCCc2cc(S(=O)(=O)Nc3ccccc3)ccc21 [SN00793348]	0.0
Cc1ccc(-c2nc3ncccn3c2NC(=O)c2ccc(C(F)(F)F)cc2)cc1 [SN00793355]	13.4
Cc1nc(S(=O)(=O)c2ccc(Br)cc2)c(NCc2ccccc2)o1 [SN00793357]	27.4
COc1ccc(Nc2cc(C)nc(N3CCN(C(=O)c4ccccc4)CC3)n2)cc1 [SN00793485]	58.6
Cc1cccc(NC(=O)N2CCN(c3nc(C)cc(N4CCN(C)CC4)n3)CC2)c1 [SN00793530]	17.4
COc1ccc(C(C)(C)C)cc1S(=O)(=O)N1CCN(c2nc(C)cc(N3CCOCC3)n2)CC1 [SN00793559]	5.9

SMILES	% Inhibition n=1 48h [%]
COc1cccc(CNC(=O)Cn2nc(C(=O)Nc3ccccc3)ccc2=O)c1 [SN00793567]	4.7
Cc1ccc(NC(=O)c2ccc(=O)n(CCN3CCOCC3)n2)cc1 [SN00793573]	2.3
O=C(NCc1ccc2c(c1)CCN2C(=O)c1ccccc1)C1CCN(S(=O)(=O)N2CCCC2)CC1 [SN00793589]	7.9
O=C(NCc1ccc2c(c1)CCN2C(=O)c1ccccc1)c1n[nH]c2c1CCc1ccccc1-2 [SN00793591]	5.7
CC(C)OCCCNC(=O)Cn1c(=O)c(=O)n(Cc2ccncc2)c2ncccc21 [SN00793629]	13.1
Cc1nc(N2CCCC2)c2c(C)c(C(=O)Nc3ccccc3Cl)sc2n1 [SN00793643]	49.2
Cn1cnc2cc(-c3noc(C4CCCO4)n3)ccc21 (stereo not shown) [SN00793699]	22.8
CCc1cc(C2CCCN2C(=O)c2cnn3c(C(F)(F)F)cc(-c4cccs4)nc23)on1 (stereo not shown) [SN00793821]	1.7
CCc1cc(C2CCCN2C(=O)Cc2ccccc2F)on1 (stereo not shown) [SN00793836]	10.7
CCc1onc(C)c1C1CCCN1C(=O)c1ccc2c(c1)OCO2 (stereo not shown) [SN00793852]	6.6
O=[N+]([O-])c1ccc(S(=O)(=O)N2CCCCCC2c2cccs2)cc1 (stereo not shown) [SN00793856]	39.9
O=[N+]([O-])c1cccc(S(=O)(=O)N2CCCCCC2c2cccs2)c1 (stereo not shown) [SN00793864]	25.8
CCc1onc(C)c1C1CCCN1S(=O)(=O)c1ccc(CC(C)C)cc1 (stereo not shown) [SN00793887]	26.3
CCCOc1ccc(CN2CCCC2c2c(C)noc2C)cc1 (stereo not shown) [SN00793908]	16.7
Cc1cc(C2CCCN2Cc2sccc2C)on1 (stereo not shown) [SN00793909]	2.5
CCOC(=O)c1ccc(Nc2c(-c3ccccc3)nc3[nH]cnn23)cc1 [SN00794007]	0.0
Cc1nnc2sc(-c3ccc(CNC(=O)c4cccc(Br)c4)cc3)nn12 [SN00794033]	41.7
CCc1nnc2sc(-c3ccc(CNC(=O)c4ccc(Br)o4)cc3)nn12 [SN00794046]	48.2
Cc1cc(C)c2c(=O)n(CC(=O)Nc3ccc(Br)cc3)c(=O)n(C)c2n1 [SN00794110]	0.0
COC(=O)c1cn(CC(=O)NCc2cc3c(cc2C)OCCCO3)c2ccccc12 [SN00794141]	14.4
CNC1(c2nnnn2-c2ccc(OC)cc2)CCCCC1 [SN00794158]	11.8
COc1ccc(-n2nnnc2C2(N3CCOCC3)CCCCC2)cc1 [SN00794159]	0.0
O=C(c1ccc(F)cc1)N1CCCN(Cc2noc(-c3ccccc3)n2)CC1 [SN00794182]	33.4

SMILES	% Inhibition n=1 48h [%]
CCCn1nnc(NCc2ccc(OCc3ccccc3)cc2)n1 [SN00794214]	16.1
CCCNC1=C(C(=O)Nc2ccc(F)cc2)S(=O)(=O)c2ccccc21 [SN00794224]	46.5
O=C(c1nc2nc(-c3ccco3)cc(C(F)(F)F)n2n1)N1CCCCCC1 [SN00794256]	19.8
O=C(Nc1ccc(F)cc1)c1nc2nc(-c3cccs3)cc(C(F)(F)F)n2n1 [SN00794266]	18.7
CNc1nc(C(N)=O)c(NC(=O)c2ccc(OC)cc2)s1 [SN00794269]	25.8
CSc1ccccc1NC(=O)C1CCN(S(C)(=O)=O)c2ccccc2O1 (stereo not shown) [SN00794287]	8.2
COc1ccccc1NC(=O)c1cn2c3c(cc(Br)cc3c1=O)CC2 [SN00794326]	11.4
COC(=O)c1c(NC(=O)Cn2nc(C(F)(F)F)c(Br)c2C)sc2c1CCCC2 [SN00794352]	23.2
Cc1cccc(NC(=O)Cn2c(=O)n(-c3ccc(F)cc3)c(=O)c3c(C)c(C(=O)N(C)C)sc32)c1 [SN00794395]	21.9
CCCNc1ncnc2c1cnn2-c1ccc(C)cc1 [SN00794411]	0.0
Cc1ccc(Cl)cc1-n1ncc2c(NCCO)ncnc21 [SN00794417]	8.1
O=C(Nc1ccc(Br)cc1)c1ccc(F)c(S(=O)(=O)NCCc2ccccc2)c1 [SN00794458]	3.9
CCN(CC)S(=O)(=O)c1ccc2[nH]cc(C(=O)NCCCN3CCCC3)c(=O)c2c1 [SN00794535]	13.0
COc1ccc(CCNC(=O)C2c3ccccc3C(=O)N2Cc2ccc(C)cc2)cc1OC (stereo not shown) [SN00794542]	6.3
CC(=O)Nc1cc(C(=O)NCCCN2CCC(C)CC2)ccc1S(=O)(=O)c1ccc(Cl)cc1 [SN00794609]	23.9
Cc1nccc2[nH]c(=O)c(C(=O)NCCCN(C)C3CCCCC3)cc12 [SN00794671]	0.0
CCOc1ccc(-c2nc(CSCC(=O)N3CCN(c4ccc(Cl)cc4)CC3)c(C)o2)cc1 [SN00794684]	0.0
CCN(c1ccccc1)S(=O)(=O)c1ccc2[nH]cc(C(=O)NCCOC)c(=O)c2c1 [SN00794693]	10.4
CCOC(=O)c1cc(-c2ccccc2)n(CCC(=O)N2CCn3c2nc2ccccc23)c1C [SN00794728]	10.1
Cc1ccc(NS(=O)(=O)c2ccc(-n3cccn3)cc2)cc1 [SN00794732]	6.0
O=C(NCc1ccccc1)c1ccc(-c2cc(N3CCOCC3)ncn2)cc1 [SN00794761]	12.2
O=C(Nc1cccc(C(=O)N2CCCC2C(=O)NCCc2ccccc2)c1)c1cccs1 (stereo not shown) [SN00794771]	3.7
CCNC(=O)C1CCCN1C(=O)c1cccc(NC(=O)c2ccc(Br)cc2)c1 (stereo not shown) [SN00794777]	0.0

Same assay, conditions: 48 h, re-assessment

SMILES	% Inhibition n=2 48h [%]
CCCNC(=O)N1CCN(c2nc3ccccc3n3cccc23)CC1 [SN00793136]	0.0
COc1ccc(Nc2cc(C)nc(N3CCN(C(=O)c4ccccc4)CC3)n2)cc1 [SN00793485]	0.0
